Laboratory results from ChEMBL document CHEMBL1145500, “In vitro bactericidal activity of the antiprotozoal drug miltefosine against Streptococcus pneumoniae and other pathogenic streptococci” (2007).
Values after ≈ are worked out from the molar mass of the structure shown. One block for each compound: values may come before it. Active and inactive are the calls of the source. The calls are words filed in the database; no cut-off is given here.

Assays:
[1] = system: Streptococcus sp.; assay: Antimicrobial activity against Streptococcus sp.11923/96; format: functional
[2] = system: Streptococcus sp.; assay: Antimicrobial activity against Streptococcus sp. 782/96; format: functional
[3] = system: Streptococcus pneumoniae; assay: Antimicrobial activity against Streptococcus pneumoniae spain 23F-1; format: functional
[4] = system: Streptococcus pseudopneumoniae; assay: Bactericidal effect on Streptococcus pseudopneumoniae at 10 uM; format: functional
[5] = system: Streptococcus pneumoniae; assay: Antimicrobial activity against Streptococcus pneumoniae R6; format: functional
[6] = system: Streptococcus sp.; assay: Bactericidal effect on Streptococcus sp. 782/96 at 10 uM; format: functional, organism-based
[7] = system: Streptococcus pneumoniae; assay: Antimicrobial activity against Streptococcus pneumoniae 8249; format: functional
[8] = system: Enterococcus faecalis; assay: Antimicrobial activity against Enterococcus faecalis; format: functional
[9] = system: Streptococcus pneumoniae; assay: Induction of autolysin LytA Streptococcus pneumoniae M32 assessed as log reduction in bacterial count at 25 uM after 3 hrs; format: functional
[10] = system: Streptococcus pneumoniae; assay: Induction of autolysin LytA in Streptococcus pneumoniae M32 assessed as log reduction in bacterial count at 25 uM after 15 mins; format: functional
[11] = system: Streptococcus pneumoniae; assay: Lytic effect on Streptococcus pneumoniae M32 in presence of 10 ug/ml LytA amidase; format: functional, organism-based
[12] = system: Streptococcus pneumoniae; assay: Antimicrobial activity against Streptococcus pneumoniae M32; format: functional
[13] = system: Streptococcus oralis; assay: Antimicrobial activity against Streptococcus oralis NCTC 11427
[14] = system: Streptococcus agalactiae; assay: Antimicrobial activity against Streptococcus agalactiae CECT 183; format: functional
[15] = system: Streptococcus pneumoniae; assay: Antimicrobial activity against Streptococcus pneumoniae ATCC 6303; format: functional
[16] = system: Streptococcus pyogenes; assay: Antimicrobial activity against Streptococcus pyogens CECT 985
[17] = system: Streptococcus mutans; assay: Antimicrobial activity against Streptococcus mutans CECT 479; format: functional
[18] = system: Streptococcus mitis; assay: Antimicrobial activity against Streptococcus mitis NCTC 12161; format: functional
[19] = system: Streptococcus sp.; assay: Bactericidal effect on Streptococcus sp.11923/96 at 10 uM; format: functional, organism-based

Structure (SMILES): CN(C)[C@@H]1C(O)=C(C(N)=O)C(=O)[C@@]2(O)C(O)=C3C(=O)c4c(O)cccc4[C@@](C)(O)[C@H]3C[C@@H]12 [TETRACYCLINE]
MIC [1]: 0.5 µg/mL (≈ 1.13 µM) | MIC [2]: 128 µg/mL (≈ 288 µM) | MIC [3]: 8 µg/mL

Structure (SMILES): CCCCCCCCCCCCCCCCOP(=O)([O-])OCC[N+](C)(C)C [MILTEFOSINE]
Activity [4]: Active | MIC [5]: 5 µM (≈ 2.04 µg/mL) | Activity [6]: Active | MIC [7]: 6.25 µM (≈ 2.55 µg/mL) | MIC [8]: 20 µM (≈ 8.15 µg/mL) | Activity [9]: 4 | Activity [10]: 2 | Activity [11]: Active | MIC [12]: 5 µM (≈ 2.04 µg/mL) | MIC [13]: 10 µM (≈ 4.08 µg/mL) | MIC [14]: 20 µM (≈ 8.15 µg/mL) | MIC [15]: 6.25 µM (≈ 2.55 µg/mL) | MIC [16]: 10 µM (≈ 4.08 µg/mL) | MIC [17]: 20 µM (≈ 8.15 µg/mL) | MIC [3]: 6.25 µM | MIC [18]: 10 µM (≈ 4.08 µg/mL) | Activity [19]: Active

MIC [3]: > 8 µg/mL
Structure (SMILES): O=C(N[C@H](CO)[C@H](O)c1ccc([N+](=O)[O-])cc1)C(Cl)Cl [CHLORAMPHENICOL]

MIC [1]: 4 µg/mL (≈ 5.45 µM) | MIC [2]: > 128 µg/mL
Structure (SMILES): CC[C@H]1OC(=O)[C@H](C)[C@@H](O[C@H]2C[C@@](C)(OC)[C@@H](O)[C@H](C)O2)[C@H](C)[C@@H](O[C@@H]2O[C@H](C)C[C@H](N(C)C)[C@H]2O)[C@](C)(O)C[C@@H](C)C(=O)[C@H](C)[C@@H](O)[C@]1(C)O [ERYTHROMYCIN]
